# Assay results from ChEMBL document CHEMBL3301361, “Experimental in vitro DMPK and physicochemical data on a set of publicly disclosed compounds”.
# Key:
# [1] = in vitro; conditions: human
# [2] = physchem; conditions: octan-1-ol/water
# [3] = in vitro; conditions: human, plasma
# [4] = physchem; conditions: pH 7.4 buffer
Compound,"logD ([2]; pH 7.4, LogD7.4)",fraction unbound at 5 h ([3]; PPB),also measured
Cc1ccc(NC(=O)c2cccc(N3CCOCC3)c2)cc1NC(=O)c1ccc(OCc2ccccn2)cc1,,,microsomal CLint ([1]; liver microsomes): 30.3 µL/min/mg
Cc1ccc(CO)cc1N(C)c1ccnc(Nc2cc(N3CCCOCC3)cc(N3CCOCC3)c2)n1,3.3,0.0556,solubility thermodynamic [4]: 91.2 µM
Cc1c(Sc2ccc(Cl)cc2)c2cc(-c3ccccc3)ccc2n1CC(=O)O,,,microsomal CLint ([1]; liver microsomes): 16 µL/min/mg
O=C(O)COc1ccc(Br)cc1-c1ccccc1,,,microsomal CLint ([1]; liver microsomes): < 3 µL/min/mg
CCC(=O)N1CCN(C(=O)c2cc(Cc3n[nH]c(=O)c4ccccc34)ccc2F)CC1,1.22,0.371,solubility thermodynamic [4]: 251 µM
COCC[C@H](Oc1ncnc2c1cnn2-c1ccccc1Cl)C(=O)Nc1ccc(C)cn1,3.6,0.0457,solubility thermodynamic [4]: 100 µM
C[C@@H]1CN(Cc2cc(Cl)ccc2OCC(=O)O)C[C@H](C)N1C(=O)Cc1ccccc1,,,microsomal CLint ([1]; microsomes): < 3 µL/min/mg
CC(C(=O)O)c1ccc(-c2ccccc2)c(F)c1 (stereo unspecified) [FLURBIPROFEN],,,microsomal CLint ([1]; liver microsomes): 23.5 µL/min/mg
Cc1ccc2c(c1)c(Sc1ccccc1Cl)c(C)n2CC(=O)O,,,microsomal CLint ([1]; microsomes): < 3 µL/min/mg
Cc1c(OC2CCN(CC3CCN([C@@H](Cc4ccc(F)cc4)C(=O)O)CC3)CC2)ccc(C#N)c1Cl,,,microsomal CLint ([1]; microsomes): 5.5 µL/min/mg
CCS(=O)(=O)c1ccc(-c2cc(C(F)(F)F)ccc2OCC(N)=O)c(C)c1,,,microsomal CLint ([1]; liver microsomes): < 3 µL/min/mg
Cc1c(Sc2ccc(Cl)cc2)c2ccc(Cl)cc2n1CC(=O)O,,,microsomal CLint ([1]; liver microsomes): < 3 µL/min/mg
Cc1ccc2c(N)c(C(N)=O)sc2n1,,,microsomal CLint ([1]; liver microsomes): 13 µL/min/mg
CC(C)Cn1c(=O)n(C)c(=O)c2c(C(=O)N3CC[C@@H](O)C3)c(Cc3ccnc4ccc(F)cc34)sc21,1.95,0.46,solubility thermodynamic [4]: 871 µM
CC(=O)Nc1ccc(O)cc1OC[C@@H](O)CN1CCC2(CC1)Cc1cc(Cl)ccc1O2,,,microsomal CLint ([1]; liver microsomes): 8 µL/min/mg
Cc1ccccc1CCOCCCS(=O)(=O)CCNCCc1ccc(O)c2nc(O)sc12,,,microsomal CLint ([1]; liver microsomes): > 150 µL/min/mg
Cc1ccc(NC(=O)c2cscn2)cc1-n1cnc2ccc(N3CCN(C)CC3)cc2c1=O,,,microsomal CLint ([1]; liver microsomes): < 3 µL/min/mg
Cc1c(Cl)ccc(OC2CCN(C[C@H](O)CNC(=O)c3c[nH]c(=O)c4ccc(S(C)(=O)=O)cc34)CC2)c1Cl,,,microsomal CLint ([1]; liver microsomes): < 3 µL/min/mg
Cc1c(Sc2ccc(Cl)cc2)c2c(C#N)c(Cl)ccc2n1CC(=O)O,,,microsomal CLint ([1]; liver microsomes): 4 µL/min/mg
COc1cccc(NC(=O)CC23CC4CC(CC(C4)C2)C3)c1C,,,microsomal CLint ([1]; liver microsomes): > 150 µL/min/mg
CC(=O)Nc1ccc2c(c1)c(Sc1ccc(Cl)cc1)c(C)n2CC(=O)O,,,microsomal CLint ([1]; liver microsomes): 36 µL/min/mg
CCc1nc2c(N)nc3ccccc3c2n1CCCCNS(C)(=O)=O [CPG-52852],1.24,0.334,solubility thermodynamic [4]: 537 µM
O=C(O)[C@H](Cc1ccc(Cl)cc1)N1CCC(CN2CCC(Oc3ccc(Cl)c(Cl)c3)CC2)CC1,,,microsomal CLint ([1]; liver microsomes): < 3 µL/min/mg
N=C(N)c1cc2c(/C=C/c3ccc4c(c3)OCO4)cccc2s1,,,microsomal CLint ([1]; liver microsomes): 7 µL/min/mg
Cc1ccc(NC(=O)c2ccc(C#N)cc2)cc1-n1cnc2ccc(N3CCN(C)CC3)cc2c1=O,2.73,0.319,solubility thermodynamic [4]: 32.4 µM
C[C@H](CO)Nc1nc(SCc2cccc(F)c2F)nc2nc(NS(C)(=O)=O)sc12,0.92,0.0114,solubility thermodynamic [4]: 832 µM

Compound,"logD ([2]; pH 7.4, LogD7.4)",fraction unbound at 5 h ([3]; PPB),also measured
O=C(NO)C1(CS(=O)(=O)c2ccc(Oc3ccc(Cl)cc3)cc2)CCOCC1 [CTS-1027],,0.02,solubility thermodynamic [4]: 126 µM
N#Cc1cnn2c(NC3CC3)cc(-c3cccs3)nc12,2.88,0.016,
CN[C@@H](C)C(=O)N[C@H](C(=O)N[C@H]1CCCN(CCc2ccccc2)C1)C1CCCCC1,1.65,0.329,
CN1CCN(c2ccc3ncc(C(N)=O)c(Nc4ccc(Cl)cc4Cl)c3c2)CC1,3.23,0.0179,
NC(=O)c1cnc(N[C@H]2CCCNC2)c2cc(-c3ccc(F)cc3)sc12,2.01,0.0262,
COc1ccc2ncc(=O)n(CCN3CC[C@H](NCc4cc5c(cn4)OCCO5)[C@@H](OC)C3)c2c1,1.25,0.166,
CN1CCN(C(=O)c2cccc(Cc3n[nH]c(=O)c4ccccc34)c2)CC1,0.92,0.349,
COCCNC(=O)c1ccc(Nc2ncc3cc(-c4ccncc4OC)ccc3n2)cc1,3.14,0.002,
CO[C@@H]1CN(CCn2c(=O)ccc3ccc(C#N)cc32)CC[C@H]1NCc1ccc2c(n1)NC(=O)CO2,0.81,0.276,
COc1ccc(-c2cc(Nc3ccn(C)n3)n3ncc(C#N)c3n2)cc1,2.97,0.0179,
O=C1COc2ccc(CNC3CCN(CCN4C(=O)COc5ccc(OC(F)(F)F)cc54)CC3)nc2N1,,,logD ([2]; pH 7.4): 1.82; fraction unbound at 5 h [3]: 0.0209
CCN(CC)S(=O)(=O)c1ccc(-c2nnc(SCC(=O)N3CCc4ccccc43)o2)cc1,3.9,0.0035,
CN[C@@H](C)C(=O)N[C@H](C(=O)N[C@H]1CCN(Cc2ccccc2)C1)C1CCCCC1,1.49,0.511,
CC(=O)Nc1cccc(Nc2nc(NC3CC3)n3ncc(C#N)c3n2)c1,2.1,0.107,
COc1nccnc1NS(=O)(=O)c1ccc(N)cc1,-0.65,0.232,
Cc1ccc(NC(=O)c2ccc(Cl)c(C(F)(F)F)c2)cc1C(=O)Nc1cccnc1,2.83,0.0119,
Cc1cc(Nc2cc(N3CCOCC3)nc(N[C@@H](C)c3ncc(F)cn3)n2)[nH]n1,1.91,0.54,
CNc1c(Br)cnc2nc(-c3ccnc(N)c3)[nH]c12,2.83,0.0268,
O=C(CCS(=O)(=O)c1ccc(Br)cc1)NCc1ccc(F)cc1,3.1,0.0428,
NC(=O)c1ccc(Oc2cccc3cccnc23)c([N+](=O)[O-])c1,,,logD ([2]; pH 7.4): 1.7; fraction unbound at 5 h [3]: 0.0383
CN(CCOc1ccc(CC2SC(=O)NC2=O)cc1)c1ccccn1 (stereo unspecified) [ROSIGLITAZONE],2.5,0.0026,solubility thermodynamic [4]: 28.2 µM
C[C@H](Nc1ccc2ncn(-c3cc(C4CC4)[nH]n3)c2n1)c1ncc(F)cn1,2.74,0.212,
CCNC(=O)Nc1nc2cc(-c3cccnc3)ccc2[nH]1,2.34,0.0179,
CC(=O)Nc1ccc2ccn(-c3cc(NC4CC4)n4ncc(C#N)c4n3)c2c1,,,logD ([2]; pH 7.4): 3.29; fraction unbound at 5 h [3]: 0.0139
CN[C@@H](C)C(=O)N[C@H](C(=O)N[C@H]1CCN(C(=O)Cc2ccccc2)C1)C1CCCCC1,0.81,0.671,
CS(=O)(=O)Cc1ccc2ccn(-c3cc(NC4CC4)n4ncc(C#N)c4n3)c2c1,2.49,0.0179,

Compound,"logD ([2]; pH 7.4, LogD7.4)",fraction unbound at 5 h ([3]; PPB),also measured
COc1ccc2ncc(=O)n(CCN3CCC(NCc4cc5c(cn4)OCCO5)CC3)c2n1,0.83,0.465,
Cc1c(Sc2ccc(Cl)cc2)c2cc(S(C)(=O)=O)ccc2n1CC(=O)O,0.54,0.0127,
CNc1c(Br)cnc2nc(-c3ccc(OCCN4CCCCC4)cc3)[nH]c12,2.56,0.112,
CC(=O)N1CCN(c2ccc(OCC3COC(Cn4ccnc4)(c4ccc(Cl)cc4Cl)O3)cc2)CC1 (stereo unspecified) [KETOCONAZOLE],,,fraction unbound at 5 h [3]: 0.028; solubility thermodynamic [4]: 6.2 µM
CN[C@@H](C)C(=O)N[C@H](C(=O)N[C@H]1CCCN(CCc2ccc(C(F)(F)F)cc2)C1)C(C)(C)C,2.85,0.0928,
O=C(CC12CC3CC(CC(C3)C1)C2)Nc1cccc2nc(NCCNCCO)ccc12,1.79,0.0457,
CC(C)(C(=O)c1cccnc1)c1cccnc1 [METYRAPONE],1.45,0.888,
O=C1[C@@H]2[C@@H]3CC[C@@H](C3)[C@@H]2C(=O)N1[C@H]1CC[C@H](C(=O)Nc2cccc3cccnc23)CC1,3.94,0.016,
Cc1cn([C@H]2CCCN(Cc3ccc(C(=O)O)c(Oc4cccc(C(F)(F)F)c4)c3)C2)c(=O)[nH]c1=O,-0.38,0.0293,
COc1cc(Nc2ncc(C)s2)nc(N[C@@H](C)c2ncc(F)cn2)n1,2.99,0.103,
O=C(Nc1ccccc1F)NC1N=C(c2ccccc2)c2ccccc2NC1=O (stereo unspecified),,,logD ([2]; pH 7.4): 3.8; fraction unbound at 5 h [3]: 0.0262
Cc1ccc(CCNC(=O)c2ccc3sc(CO)nc3c2)cc1,,0.0293,solubility thermodynamic [4]: 16.2 µM
CC(=O)Nc1ccc2c(c1)N(c1cc(NC3CC3)n3ncc(C#N)c3n1)CC2,3.3,0.0251,
CC(C)(C)OC(=O)NCCCSC[C@H]1O[C@@H](n2cnc3c(N)ncnc32)[C@H](O)[C@@H]1O,1.2,0.236,
COc1ccc(-c2nc(N3CCOCC3)nc(O)c2C#N)cc1,0.2,0.0647,
CNC(=O)c1cc(C(=O)c2ccc(Cl)cc2)c(Br)[nH]1,3.1,0.0139,
COc1cc(Nc2nc(N[C@@H](C)c3ncc(F)cn3)ncc2Cl)n[nH]1,2.53,0.121,
Cc1c(N)cccc1Cn1ccc(OCCc2cccs2)cc1=O [CG-400549],2.78,0.0499,
Cc1ccc(NC(=O)c2ccnc(N3CCOCC3)c2)cc1NC(=O)c1ccc(OCc2ccccn2)cc1,3.47,0.0149,
CS(=O)(=O)c1ccc2c(C(=O)NC[C@@H](O)CN3CCC(Oc4ccc(C#N)c(Cl)c4)CC3)c[nH]c(=O)c2c1,1.41,0.319,
CN[C@@H](C)C(=O)N[C@H](C(=O)N[C@H]1CCCN(C(=O)c2ccccc2)C1)C1CCCCC1,0.87,0.552,
O=c1cc(-c2ccccc2)ccn1-c1ccc2c(cnn2CCN2CCCC2)c1,1.6,0.17,
CN[C@@H](C)C(=O)N[C@H](C(=O)N[C@H]1CCN(CCc2ccccc2)C1)C1CCCCC1,1.65,0.443,
O=C(c1cccc(Cc2n[nH]c(=O)c3ccccc23)c1)N1CCN(c2ncccn2)CC1,2.13,0.0544,
